Measured values published in ChEMBL document CHEMBL5380795, “Design, Synthesis, and Bioactivity Investigation of Cyclic Lipopeptide Antibiotics Containing Eight to Nine Amino Acids” (J Med Chem, 2023).
≈ marks a conversion by molar mass, not a printed value. Calls of active or inactive are those of the source. No cut-off for these calls is given here.

Assays:
[1] = Acute toxicity in ICR mouse assessed as adverse effects at 8.19 mg/kg, iv administered into tail vein and measured twice daily over 1 week; type: organism-based; conditions: in vivo, 168 h, time 1 weeks
Escherichia coli [2] = test: Bactericidal activity against Escherichia coli ATCC BAA-2523 assessed as reduction in bacterial count at 4 times MIC measured after 2 hrs by time-kill assay; type: functional, organism-based
Escherichia coli [3] = test: Antibacterial activity against Escherichia coli ATCC BAA-2523 assessed as inhibition of bacterial growth incubated for 18 to 24 hrs by broth microdilution method; type: functional; conditions: time 18-24 hrs
Escherichia coli [4] = test: Bactericidal activity against Escherichia coli ATCC BAA-2523 assessed as bacterial count at 8 times MIC measured after 24 hrs by time-kill assay; type: functional, organism-based
Escherichia coli [5] = test: Antibacterial activity against Escherichia coli clinical isolate 19-2 assessed as inhibition of bacterial growth incubated for 18 to 24 hrs by broth microdilution method; type: functional; conditions: time 18-24 hrs
Escherichia coli [6] = test: Potentiation of rifampicin induced antibacterial activity in Escherichia coli ATCC 25922 assessed as rifampicin MIC at 0.008 ug/ml incubated for 18 to 24 hrs by broth microdilution method (reference value: 2 ug/ml); type: functional; conditions: dose 0.008 µg/ml, time 18-24 hrs
[7] = Plasma protein binding in human at 2 uM incubated for 6 hrs by equilibrium dialysis based LC-MS/MS analysis; type: ADME, cell-free; conditions: read-out: PPB (converted)
Escherichia coli [8] = test: Antibacterial activity against Escherichia coli ATCC BAA-2523 infected in ICR mouse assessed as mouse survival at 2 mg/kg, iv administered into tail vein and measured daily for 7 days relative to control; type: functional; conditions: ATCC BAA-2523, 168 h, time 7 day
[9] = Half life in overnight fasted Sprague-Dawley rat at 4 mg/kg, ip measured for 24 hrs by LC-MS/MS analysis; type: ADME, organism-based; conditions: in vivo
Escherichia coli [10] = test: Antibacterial activity against Escherichia coli NCTC 13353 assessed as inhibition of bacterial growth incubated for 18 to 24 hrs by broth microdilution method; type: functional; conditions: time 18-24 hrs
Escherichia coli [11] = test: Antibacterial activity against KPC producing Escherichia coli ATCC BAA-2340 assessed as inhibition of bacterial growth incubated for 18 to 24 hrs by broth microdilution method; type: functional; conditions: time 18-24 hrs
Escherichia coli [12] = test: Potentiation of rifampicin induced antibacterial activity in Escherichia coli ATCC 25922 assessed as rifampicin MIC at 0.004 ug/ml incubated for 18 to 24 hrs by broth microdilution method (reference value: 2 ug/ml); type: functional; conditions: dose 0.004 µg/ml, time 18-24 hrs
[13] = Cytotoxicity against human HK-2 cells assessed as inhibition of cell growth incubated for 72 hrs by CCK-8 assay; type: toxicity, cell-based
Klebsiella pneumoniae [14] = test: Antibacterial activity against carbapenem resistant Klebsiella pneumoniae clinical isolate 19-15 assessed as inhibition of bacterial growth incubated for 18 to 24 hrs by broth microdilution method; type: functional; conditions: time 18-24 hrs
Pseudomonas aeruginosa = test: Antibacterial activity against carbapenem resistant Pseudomonas aeruginosa clinical isolate 17-1 assessed as inhibition of bacterial growth incubated for 18 to 24 hrs by broth microdilution method; type: functional; conditions: time 18-24 hrs
Escherichia coli [15] = test: Potentiation of rifampicin induced antibacterial activity in Escherichia coli ATCC 25922 assessed as rifampicin MIC at 0.03 ug/ml incubated for 18 to 24 hrs by broth microdilution method (reference value: 2 ug/ml); type: functional; conditions: dose 0.03 µg/ml, time 18-24 hrs
Escherichia coli [16] = test: Potentiation of rifampicin induced antibacterial activity in Escherichia coli ATCC 25922 assessed as rifampicin MIC at 0.5 ug/ml incubated for 18 to 24 hrs by broth microdilution method (reference value: 2 ug/ml); type: functional; conditions: dose 0.5 µg/ml, time 18-24 hrs
Staphylococcus aureus = test: Antibacterial activity against methicillin resistant Staphylococcus aureus ATCC 33591 assessed as inhibition of bacterial growth incubated for 18 to 24 hrs by broth microdilution method; type: functional; conditions: time 18-24 hrs
Escherichia coli [17] = test: Potentiation of rifampicin induced antibacterial activity in Escherichia coli ATCC 25922 assessed as rifampicin MIC at 4 ug/ml incubated for 18 to 24 hrs by broth microdilution method (reference value: 2 ug/ml); type: functional; conditions: dose 4 µg/ml, time 18-24 hrs
[18] = Selectivity index, ratio of IC50 for cytotoxicity against human HK-2 cells to MIC for antibacterial activity against Escherichia coli ATCC BAA-2523; type: toxicity, cell-based
Escherichia coli [19] = test: Bactericidal activity against Escherichia coli ATCC BAA-2523 assessed as log reduction in bacterial count by measuring reduction in CFU/ml at 4 times MIC measured after 24 hrs by time-kill assay; type: functional
Lipopolysaccharide (LPS) = test: Binding affinity to LIP-1 sensor chip immobilized Escherichia coli LPS assessed as increase in resonance units measured for 600 secs by SPR analysis; conditions: dose 0.125-4 µM, time 600.0 sec
Escherichia coli [20] = test: Antibacterial activity against Escherichia coli ATCC 25922 assessed as inhibition of bacterial growth incubated for 18 to 24 hrs by broth microdilution method; type: functional; conditions: time 18-24 hrs
Acinetobacter baumannii [21] = test: Antibacterial activity against oxacillinase-27 producing Acinetobacter baumannii NCTC 13304 assessed as inhibition of bacterial growth incubated for 18 to 24 hrs by broth microdilution method; type: functional; conditions: time 18-24 hrs
[22] = system: Staphylococcus epidermidis; test: Antibacterial activity against methicillin resistant Staphylococcus epidermidis clinical isolate 19-5 assessed as inhibition of bacterial growth incubated for 18 to 24 hrs by broth microdilution method; type: functional; conditions: time 18-24 hrs
Acinetobacter baumannii [23] = test: Antibacterial activity against carbapenem resistant Acinetobacter baumannii clinical isolate 19-8 assessed as inhibition of bacterial growth incubated for 18 to 24 hrs by broth microdilution method; type: functional; conditions: time 18-24 hrs
Escherichia coli [24] = test: Antibacterial activity against Escherichia coli ATCC BAA-2523 infected in ICR mouse assessed as mouse survival at 4 to 8 mg/kg, iv administered into tail vein and measured daily for 7 days; type: functional, organism-based; conditions: dose 4-8 mg/kg, time 7.0 day
[25] = Acute toxicity in ICR mouse administered into tail vein and measured twice daily over 1 week; conditions: in vivo, route iv, time 1 weeks
Klebsiella pneumoniae [26] = test: Antibacterial activity against KPC producing Klebsiella pneumoniae ATCC BAA-1705 assessed as inhibition of bacterial growth incubated for 18 to 24 hrs by broth microdilution method; type: functional; conditions: time 18-24 hrs
Cell membrane = test: Induction of outer membrane permeabilization in Escherichia coli ATCC 25922 assessed as increase in fluorescence at 1 to 16 ug/ml measured after 3 mins by NPN-dye based assay; type: subcellular; conditions: dose 1-16 µg/ml
Klebsiella pneumoniae [27] = test: Antibacterial activity against carbapenem resistant Klebsiella pneumoniae clinical isolate 19-17 assessed as inhibition of bacterial growth incubated for 18 to 24 hrs by broth microdilution method; type: functional; conditions: time 18-24 hrs
[28] = Acute toxicity in ICR mouse assessed as animal death at 16 mg/kg, iv administered into tail vein and measured after 0.5 to 1 mins; type: organism-based; conditions: in vivo, time 0.5-1 min
Escherichia coli [29] = test: Potentiation of rifampicin induced antibacterial activity in Escherichia coli ATCC 25922 assessed as rifampicin MIC at 2 ug/ml incubated for 18 to 24 hrs by broth microdilution method (reference value: 2 ug/ml); type: functional; conditions: dose 2 µg/ml, time 18-24 hrs
Escherichia coli [30] = test: Bactericidal activity against Escherichia coli ATCC BAA-2523 assessed as reduction in bacterial count at 0.5 to 2 times MIC measured after 2 to 24 hrs by time-kill assay; type: functional, organism-based; conditions: time 2-24 hrs

CCCCCCC[C@@H](O)CC(=O)N[C@H](CCN)C(=O)N[C@H]1CCNC(=O)[C@H]([C@@H](C)O)NC(=O)[C@H](CCN)NC(=O)[C@H](CCN)NC(=O)[C@H]([C@@H](C)O)NC(=O)[C@@H](Cc2ccccc2)NC(=O)[C@H](CCN)NC1=O
Activity [1]: Non-Toxic
Activity (Escherichia coli [2]): Active
MIC (Escherichia coli [3]): 0.5 µg/mL (≈ 0.49 µM)
Activity (Escherichia coli [4]): Below limit of detection
MIC (Escherichia coli [5]): 1 µg/mL (≈ 0.98 µM)
MIC (Escherichia coli [6]): 0.5 µg/mL
fraction unbound at 6 h, 2 µM [7]: 0.147
survival at 2 mg/kg (Escherichia coli [8]): 62.5%
half-life [9]: 3.7 h
MIC (Escherichia coli [10]): 2 µg/mL (≈ 1.96 µM)
MIC (Escherichia coli [11]): 1 µg/mL (≈ 0.98 µM)
MIC (Escherichia coli [12]): 0.5 µg/mL
IC50 at 72 h [13]: 414 µg/mL (≈ 406 µM)
MIC (Klebsiella pneumoniae [14]): 4 µg/mL (≈ 3.92 µM)
MIC (Pseudomonas aeruginosa): 0.5 µg/mL (≈ 0.49 µM)
MIC (Escherichia coli [15]): ≤ 0.06 µg/mL
MIC (Escherichia coli [16]): ≤ 0.06 µg/mL
MIC (Staphylococcus aureus): > 64 µg/mL
MIC (Escherichia coli [17]): ≤ 0.06 µg/mL
selectivity ratio [18]: 828
log(activity) (Escherichia coli [19]): 0.6
Activity (Lipopolysaccharide (LPS)): Dose-Dependent Effect
MIC (Escherichia coli [20]): 4 µg/mL (≈ 3.92 µM)
MIC (Acinetobacter baumannii [21]): 8 µg/mL (≈ 7.84 µM)
MIC [22]: 64 µg/mL (≈ 62.7 µM)
MIC (Acinetobacter baumannii [23]): 32 µg/mL (≈ 31.4 µM)
Activity (Escherichia coli [24]): Active
LD50 at 168 h [25]: 12.4 mg/kg
MIC (Klebsiella pneumoniae [26]): 1 µg/mL (≈ 0.98 µM)
Activity (Cell membrane): Active
MIC (Klebsiella pneumoniae [27]): 8 µg/mL (≈ 7.84 µM)
Activity [28]: Toxic
MIC (Escherichia coli [29]): ≤ 0.06 µg/mL
Activity (Escherichia coli [30]): inactive
